Assay results: patent US20240059703A1 (AMGEN INC., priority 2021, published 2024)

Key:
[1] = target: KRAS G12C (Homo sapiens (Human), UniProt P01116, C118A/G12C); assay: 2 h coupled exchange assay; assay type: biochemical; conditions: Avg 2 h Coupled exchange IC50, 2 h compound pre-incubation
Procedure: The term “2 h coupled exchange assay” or “20 h coupled exchange assay” as used herein refers to the assay described in the Section entitled “BIOLOGICAL EVALUATION.”

[2] = tested on: MIA PaCa-2 (human pancreatic carcinoma) cells; assay: Cell Viability Assay (CellTiter-Glo), MIA PaCa-2; assay type: cell-based
Procedure: Serially-diluted compound or DMSO was added to the cells, and plates were incubated at 37° C., 5% CO2 for 72 h. Cell viability was measured using a CellTiter-Glo® Luminescent Cell Viability Assay kit (Promega) according to the manufacturer's protocol. The luminescence signal of treated samples was normalized to DMSO control, and data were analyzed using a 4-parameter logistic model to calculate IC50 values.

[3] = tested on: A549 (human lung carcinoma) cells; assay: Cell Viability Assay (CellTiter-Glo), A549; assay type: cell-based
Method in brief: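 Seeding at 1.67E+04 cells/mL is followed by overnight attachment at 37° C., 5% CO2. Serially diluted compound is added for 72 h. Viability is read by CellTiter-Glo luminescence, scaled to DMSO and fitted (4-parameter logistic) to give IC50.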

Sequence of KRAS G12C (P01116 other isoform, or with tags, fused parts or gaps G12C/C118A): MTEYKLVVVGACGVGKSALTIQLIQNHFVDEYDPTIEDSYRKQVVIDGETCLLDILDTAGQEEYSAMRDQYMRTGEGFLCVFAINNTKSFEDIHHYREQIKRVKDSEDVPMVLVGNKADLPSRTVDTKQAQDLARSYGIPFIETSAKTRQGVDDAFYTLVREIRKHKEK

SMILES | IC50 [1] | IC50 ([2]; Homo sapiens, MIA PaCa-2, 72 h) | IC50 ([3]; Homo sapiens, A549, 72 h) | IC50 ([2]; 72 h) | IC50 ([3]; 72 h)
C=CC(=O)N1CC2(CCN(c3nc4c(c(-c5c(C)c(C)cc6cnn(C)c56)c3C)COC(C)(C)C4)C2)C1 (single isomer, unassigned) [Example 14-41, (P)-1-(6-(3,7,7-trimethyl-4-(1,5,6-trimethyl-1H-indazol-7-yl)-7,8-dihydro-5H-pyrano[4,3-b]pyridin-2-yl)-2,6-diazaspiro[3.4]octan-2-yl)-2-propen-1-one] | 0.066 µM | 0.408 µM | > 5 µM | – | –
C=CC(=O)N1CC2(CCN(c3nc4c(c(-c5cccc6cc(O)ccc56)c3C)COC(C)(C)C4)C2)C1 (single isomer, unassigned) [Example 14-44, (P)-1-(6-(4-(6-hydroxy-1-naphthalenyl)-3,7,7-trimethyl-7,8-dihydro-5H-pyrano[4,3-b]pyridin-2-yl)-2,6-diazaspiro[3.4]octan-2-yl)-2-propen-1-one] | 0.071 µM | 0.044 µM | > 5 µM | – | –
C=CC(=O)N1CC2(CCN(c3nc4c(c(-c5c(C)ccc6cn[nH]c56)c3C#N)C[C@H]3C[C@@H]4C3(C)C)C2)C1 (single isomer, unassigned) [Example 14-51] | 0.011 µM | 0.018 µM | > 5 µM | – | –
C=CC(=O)N1CC2(CCN(c3nc4c(c(-c5ccc(F)c6sc(N)nc56)c3C#N)COC(C)(C)C4)C2)C1 (single isomer, unassigned) [Example 14-57, (P)-4-(2-amino-7-fluoro-1,3-benzothiazol-4-yl)-7,7-dimethyl-2-(2-(2-propenoyl)-2,6-diazaspiro[3.4]octan-6-yl)-7,8-dihydro-5H-pyrano[4,3-b]pyridine-3-carbonitrile] | 0.04 µM | 0.071 µM | > 5 µM | – | –
C=CC(=O)N1CC2(CCN(c3nc4c(c(-c5cc(O)ccc5C)c3F)C[C@H]3C[C@@H]4C3(C)C)C2)C1 (single isomer, unassigned) [Example 14-59] | 0.025 µM | 0.293 µM | > 5 µM | – | –
C=CC(=O)N1CC2(CCN(c3nc4c(c(-c5cc(O)cc6ccccc56)c3F)COC(C)(C)C4)C2)C1 (single isomer, unassigned) [Example 14-70, (P)-1-(6-(3-fluoro-4-(3-hydroxy-1-naphthalenyl)-7,7-dimethyl-7,8-dihydro-5H-pyrano[4,3-b]pyridin-2-yl)-2,6-diazaspiro[3.4]octan-2-yl)-2-propen-1-one] | 0.068 µM | 0.082 µM | > 5 µM | – | –
C=CC(=O)N1CC2(CCN(c3nc4c(c(-c5c(C)ccc6[nH]ncc56)c3F)C[C@H]3C[C@@H]4C3(C)C)C2)C1 (single isomer, unassigned) [Example 14-73] | 0.01 µM | 0.011 µM | > 5 µM | – | –
C=CC(=O)N1CC2(CCN(c3nc4c(c(-c5c(C)ccc6cn[nH]c56)c3C#N)COC(C)(C)C4)C2)C1 (single isomer, unassigned) [Example 14-81, (P)-7,7-dimethyl-4-(6-methyl-1H-indazol-7-yl)-2-(2-(2-propenoyl)-2,6-diazaspiro[3.4]octan-6-yl)-7,8-dihydro-5H-pyrano[4,3-b]pyridine-3-carbonitrile] | 0.045 µM | 0.092 µM | > 5 µM | – | –
C=CC(=O)N1CC2(CCN(c3nc4c(c(-c5c(C)c(Cl)cc6cnn(C)c56)c3C)COC(C)(C)C4)C2)C1 (single isomer, unassigned) [Example 14-89, (P)-1-(6-(4-(5-chloro-1,6-dimethyl-1H-indazol-7-yl)-3,7,7-trimethyl-7,8-dihydro-5H-pyrano[4,3-b]pyridin-2-yl)-2,6-diazaspiro[3.4]octan-2-yl)-2-propen-1-one] | 0.081 µM | 0.08 µM | 1.8 µM | – | –
C=CC(=O)N1CC2(CCN(c3nc4c(c(-c5c(C)ccc6cn[nH]c56)c3C)CC[C@H](c3c(C)cnn3C)C4)C2)C1 (single isomer, unassigned) [Example 14-97] | 0.208 µM | 0.254 µM | 10 µM | – | –
C=CC(=O)N1CC2(CCN(c3nc4c(c(-c5c(C)ccc6cnn(C)c56)c3C)CC[C@@H](c3c(C)cnn3C)C4)C2)C1 (single isomer, unassigned) [Example 14-98] | 0.071 µM | 0.08 µM | > 5 µM | – | –
C=CC(=O)N1CC2(CCN(c3nc4c(c(-c5c(C)ccc6cnn(C)c56)c3C)COC(C)(C)C4)C2)C1 (single isomer, unassigned) [Example 14-99, (P)-1-(6-(4-(1,6-dimethyl-1H-indazol-7-yl)-3,7,7-trimethyl-7,8-dihydro-5H-pyrano[4,3-b]pyridin-2-yl)-2,6-diazaspiro[3.4]octan-2-yl)-2-propen-1-one] | 0.071 µM | 0.08 µM | > 5 µM | – | –
C=CC(=O)N1CC2(CCN(c3nc4c(c(-c5cc(O)cc6ccccc56)c3C)COC(C)(C)C4)C2)C1 (single isomer, unassigned) [Example 14-103, (M)-1-(6-(4-(3-hydroxy-1-naphthalenyl)-3,7,7-trimethyl-7,8-dihydro-5H-pyrano[4,3-b]pyridin-2-yl)-2,6-diazaspiro[3.4]octan-2-yl)-2-propen-1-one] | 0.045 µM | 0.032 µM | 7.62 µM | – | –
C=CC(=O)N1CC2(CCN(c3nc4c(c(-c5cccc6cc(O)ccc56)c3C)CCN(C(C)C)C4)C2)C1 (single isomer, unassigned) [Example 18-4, (P)-1-(6-(4-(6-hydroxy-1-naphthalenyl)-3-methyl-7-(2-propanyl)-5,6,7,8-tetrahydro-1,7-naphthyridin-2-yl)-2,6-diazaspiro[3.4]octan-2-yl)-2-propane-1-one] | 0.017 µM | 0.012 µM | > 5 µM | – | –
C=CC(=O)N1CC2(CCN(c3nc4c(c(-c5c(C)ccc6[nH]ncc56)c3C)CCN(C(C)C)C4)C2)C1 (single isomer, unassigned) [Example 18-19, (P)-1-(6-(3-methyl-4-(5-methyl-1H-indazol-4-yl)-7-(2-propanyl)-5,6,7,8-tetrahydro-1,7-naphthyridin-2-yl)-2,6-diazaspiro[3.4]octan-2-yl)-2-propane-1-one] | 0.131 µM | – | > 25 µM | 0.056 µM | –
C=CC(=O)N1CC2(CCN(c3nc4c(c(-c5c(C)ccc6[nH]ncc56)c3C)CCN(C(C)C)C4)C2)C1 (single isomer, unassigned) [Example 18-22, (M)-1-(6-(3-methyl-4-(5-methyl-1H-indazol-4-yl)-7-(2-propanyl)-5,6,7,8-tetrahydro-1,7-naphthyridin-2-yl)-2,6-diazaspiro[3.4]octan-2-yl)-2-propen-1-one] | 6.88 µM | – | – | 0.804 µM | > 20 µM

Next, values leading:

IC50 [1] | IC50 ([2]; Homo sapiens, MIA PaCa-2, 72 h) | IC50 ([3]; Homo sapiens, A549, 72 h) | IC50 ([2]; 72 h) | IC50 ([3]; 72 h) | SMILES
0.038 µM | – | > 5 µM | 0.695 µM | – | C=CC(=O)N1CC2(CCN(c3nc4cc(-c5scnc5C)ccc4c(-c4c(O)cccc4F)c3C#N)C2)C1 (single isomer, unassigned) [Example 19-4, (P)-4-(2-fluoro-6-hydroxyphenyl)-7-(4-methyl-1,3-thiazol-5-yl)-2-(2-(2-propenoyl)-2,6-diazaspiro[3.4]octan-6-yl)-3-quinolinecarbonitrile]
0.068 µM | 1.35 µM | > 5 µM | – | – | C=CC(=O)N1CC2(CCN(c3nc4cc(-c5scnc5C)ccc4c(-c4ccccc4C)c3C#N)C2)C1 (single isomer, unassigned) [Example 19-11, (P)-4-(2-methylphenyl)-7-(4-methyl-1,3-thiazol-5-yl)-2-(2-(2-propenoyl)-2,6-diazaspiro[3.4]octan-6-yl)-3-quinolinecarbonitrile]
0.074 µM | – | – | 1.4 µM | 3.79 µM | C=CC(=O)N1CC2(CCN(c3nc4cc(-c5scnc5C)ccc4c(-c4ccccc4C)c3C#N)C2)C1 (single isomer, unassigned) [Example 19-12, (M)-4-(2-methylphenyl)-7-(4-methyl-1,3-thiazol-5-yl)-2-(2-(2-propenoyl)-2,6-diazaspiro[3.4]octan-6-yl)-3-quinolinecarbonitrile]
0.067 µM | 0.671 µM | > 5 µM | – | – | C=CC(=O)N1CC2(CCN(c3nc4cc(-c5scnc5C)cnc4c(-c4cccc(C)c4C)c3C#N)C2)C1 (single isomer, unassigned) [Example 19-13, (M)-4-(2,3-dimethylphenyl)-7-(4-methyl-1,3-thiazol-5-yl)-2-(2-(2-propenoyl)-2,6-diazaspiro[3.4]octan-6-yl)-1,5-naphthyridine-3-carbonitrile]
0.038 µM | – | – | 0.366 µM | > 5 µM | C=CC(=O)N1CC2(CCN(c3nc4cc(-c5scnc5C)cnc4c(-c4cccc(C)c4C)c3C#N)C2)C1 (single isomer, unassigned) [Example 19-14, (P)-4-(2,3-dimethylphenyl)-7-(4-methyl-1,3-thiazol-5-yl)-2-(2-(2-propenoyl)-2,6-diazaspiro[3.4]octan-6-yl)-1,5-naphthyridine-3-carbonitrile]
2.96 µM | – | – | 4.56 µM | 7.6 µM | C=CC(=O)N1CC2(CCN(c3nc4cc(-c5scnc5C)ccc4c(-c4c(O)cccc4F)c3C#N)C2)C1 (single isomer, unassigned) [Example 19-15, (M)-4-(2-fluoro-6-hydroxyphenyl)-7-(4-methyl-1,3-thiazol-5-yl)-2-(2-(2-propenoyl)-2,6-diazaspiro[3.4]octan-6-yl)-3-quinolinecarbonitrile]
